Results from article PMC6934184, “Selective DNA-PKcs inhibition extends the therapeutic index of localized radiotherapy and chemotherapy” (The Journal of Clinical Investigation, 2019).

Biological target: T1, SIK1 (Homo sapiens, UniProt P57059)
T1 construct: purchased Thermo Fisher Scientific (Life Technologies) SelectScreen
Assay: SelectScreen LanthaScreen
Assay type: binding
Conditions: 1 µM
Method in brief: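 SelectScreen broad panel; activity (Z'LYTE, Adapta) plus binding formats. ATP: Km app for CSF1R Z'LYTE; 10 for CAMK1 Adapta. Readout = % per kinase.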

T1 sequence (P57059 whole entry): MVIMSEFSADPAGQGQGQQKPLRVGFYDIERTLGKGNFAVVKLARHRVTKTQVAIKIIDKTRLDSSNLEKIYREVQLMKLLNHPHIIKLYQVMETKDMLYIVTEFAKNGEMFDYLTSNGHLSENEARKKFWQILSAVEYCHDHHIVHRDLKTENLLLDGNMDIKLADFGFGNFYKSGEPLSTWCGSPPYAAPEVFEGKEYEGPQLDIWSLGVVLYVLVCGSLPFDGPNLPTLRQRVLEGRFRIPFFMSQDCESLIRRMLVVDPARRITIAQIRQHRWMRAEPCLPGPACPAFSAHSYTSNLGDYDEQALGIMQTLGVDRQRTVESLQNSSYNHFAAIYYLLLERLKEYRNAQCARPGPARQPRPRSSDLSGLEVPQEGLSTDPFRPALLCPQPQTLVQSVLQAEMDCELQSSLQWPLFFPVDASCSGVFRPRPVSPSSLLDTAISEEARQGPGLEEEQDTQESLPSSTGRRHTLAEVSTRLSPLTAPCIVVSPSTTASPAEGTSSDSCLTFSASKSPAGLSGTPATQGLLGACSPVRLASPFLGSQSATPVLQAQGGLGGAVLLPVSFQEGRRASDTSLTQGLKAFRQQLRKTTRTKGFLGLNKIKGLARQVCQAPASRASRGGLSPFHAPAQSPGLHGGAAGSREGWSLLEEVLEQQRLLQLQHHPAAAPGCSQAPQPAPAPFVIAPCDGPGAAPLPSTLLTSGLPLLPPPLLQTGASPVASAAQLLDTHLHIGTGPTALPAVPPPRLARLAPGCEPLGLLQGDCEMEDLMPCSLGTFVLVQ

`CN(C(=O)CN1CCOCC1)c1ccc2sc3c(-c4cccc5c(=O)cc(N6CC7CCC(C6)O7)oc45)cccc3c2c1` [NU5455] was tested, and the “% displacement” value was 1.3%.
